Publication PMC5618506, “CCR7 Sulfotyrosine Enhances CCL21 Binding” (International Journal of Molecular Sciences, 2017)
Non-standard residues stand in square brackets, D forms with d. Residues, ends and D or L forms follow the SMILES beside them. No end group written: not given here. sY = N[C@@H](Cc1ccc(OS(=O)(=O)O)cc1)C(=O)O; pY = N[C@@H](Cc1ccc(OP(=O)(O)O)cc1)C(=O)O

B1: CCL21 (protein)
chain: SDGGAQDCCLKYSQRKIPAKVVRSYRKQEPSLGCSIPAILFLPRKRSQAELCADPKELWVQQLMQHLDKTPSPQKPAQGCRKDRGASKTGKKGKGSKGCKRTERSQTPKGP

What was measured:
CCL21 = molecular target: T1, CCL21 (Homo sapiens, UniProt O00585); experiment: 15N-1H HSQC NMR titration of U-15N CCL21 with CCR7 N-terminal peptides; Kd by nonlinear fitting of chemical shift perturbations; format: binding; conditions: for Kd: 100 μM U-15N CCL21 titrated with peptide, NMR buffer 25 mM deuterated MES, 10% D2O, 0.2% NaN3, pH 6.0, 25 °C, fit of all CCL21 residues with significant chemical shift perturbations (11–30 sY17: only residues that did not broaden beyond detection), ± CI at 95% confidence level; for Kd, CCL21 K69 only (representative residue): nonlinear fitting of combined amide chemical shift perturbations of CCL21 residue K69 versus peptide concentration, 100 μM U-15N CCL21, pH 6.0, 25 °C
T1 construct: Our previous NMR studies defined the 3D structure of full-length CCL21; made in house
T1 sequence (O00585 24-134): B1 chain
Procedure: NMR spectroscopic data were collected at the NMR facility at the Medical College of Wisconsin on a Bruker Avance 600 MHz spectrometer equipped with ^1H/^13C/^15N Cryoprobe® at 25 °C. Chemical shift assignments for CCR7 1–30 C24A (H, N, C, C^α, and most side chain carbons) were determined by standard techniques using 1.05 mM U-^15N/^13C labeled CCR7 1–30 C24A in NMR buffer (25 mM deuterated MES, 10% D2O, 0.2% NaN3, pH 6.0). To determine CCR7 N-terminal residues likely involved in CCL21 binding, 200 μM U-^15N/^13C CCR7 1–30 C24A in NMR buffer was monitored using ^15N-^1H HSQC spectra while titrating with increasing CCL21 concentrations (molar ratios of 1:0, 1:0.25, 1:0.5, 1:0.75, 1:1, 1:1.5, 1:2 and 1:2.5 of CCR7:CCL21).
To identify the impact of CCR7 tyrosine modification on CCL21 binding, 100 μM of U-^15N CCL21 in NMR buffer was titrated with increasing concentrations of the indicated CCR7 peptides and monitored using ^15N-^1H HSQC spectra, as previously described. […] Combined amide chemical shift perturbations (Δδ) were computed as [(5ΔδH)^2+(ΔδN)^2]^1/2, where ΔδH and ΔδN are the changes in backbone amide ^1H and ^15N chemical shifts in ppm, respectively. Dose-dependent changes in chemical shift perturbations upon titration with the various CCR7 peptides were used to determine dissociation constant (Kd) values through nonlinear fitting to an equation that takes into account ligand depletion, as previously described.

CCR7 5–11 sY8 = molecular target: T2, CCR7 5–11 sY8 (Homo sapiens, N-terminus assumed; SMILES CC[C@H](C)[C@H](NC(=O)[C@H](Cc1ccc(OS(=O)(=O)O)cc1)NC(=O)[C@H](CC(=O)O)NC(=O)[C@H](CC(=O)O)NC(=O)[C@@H](N)[C@@H](C)O)C(=O)NCC(=O)N[C@@H](CC(=O)O)C(N)=O); experiment: NMR
T2 chain: TDD[sY]IGD-NH2

CCR7 5–11 = molecular target: T3, CCR7 5–11 (Homo sapiens); experiment: NMR
T3 chain: TDDYIGD-NH2

CCR7 5–11 pY8 = molecular target: T4, CCR7 5–11 pY8 (Homo sapiens, N-terminus assumed; SMILES CC[C@H](C)[C@H](NC(=O)[C@H](Cc1ccc(OP(=O)(O)O)cc1)NC(=O)[C@H](CC(=O)O)NC(=O)[C@H](CC(=O)O)NC(=O)[C@@H](N)[C@@H](C)O)C(=O)NCC(=O)N[C@@H](CC(=O)O)C(N)=O); experiment: NMR
T4 chain: TDD[pY]IGD-NH2

Molecule | Kd (CCL21) [µM] | other results
CC[C@H](C)[C@H](NC(=O)[C@H](Cc1ccc(OP(=O)(O)O)cc1)NC(=O)[C@H](CC(=O)O)NC(=O)[C@H](CC(=O)O)NC(=O)[C@@H](N)[C@@H](C)O)C(=O)NCC(=O)N[C@@H](CC(=O)O)C(N)=O [CCR7 5–11 pY8] (H-TDD[pY]IGD-NH2) | 240 ± 60 | 
CC[C@H](C)[C@H](NC(=O)[C@H](Cc1ccc(OS(=O)(=O)O)cc1)NC(=O)[C@H](CC(=O)O)NC(=O)[C@H](CC(=O)O)NC(=O)[C@@H](N)[C@@H](C)O)C(=O)NCC(=O)N[C@@H](CC(=O)O)C(N)=O [CCR7 5–11 sY8] (H-TDD[sY]IGD-NH2) | 140 ± 40 | Kd, CCL21 K69 only (representative residue) (CCL21): 180 ± 40 µM
CC(C)C[C@H](NC(=O)[C@H](CO)NC(=O)[C@H](CCC(=O)O)NC(=O)[C@H](Cc1ccccc1)NC(=O)[C@H](CC(C)C)NC(=O)[C@@H](NC(=O)[C@H](Cc1ccc(OP(=O)(O)O)cc1)NC(=O)[C@H](CC(=O)O)NC(=O)[C@@H](NC(=O)[C@@H](NC(=O)[C@@H](NC(=O)[C@H](CC(N)=O)NC(=O)[C@@H](N)CC(=O)O)[C@@H](C)O)[C@@H](C)O)C(C)C)[C@@H](C)O)C(=O)N[C@@H](C)C(=O)N[C@@H](CO)C(=O)N[C@@H](CCCCN)C(=O)N[C@@H](CCCCN)C(=O)N[C@@H](CC(=O)O)C(=O)N[C@H](C(=O)N[C@@H](CCCNC(=N)N)C(N)=O)C(C)C [CCR7 11–30 pY17] (H-DNTTVD[pY]TLFESLASKKDVR-NH2) | 1700 | 
CC(C)C[C@H](NC(=O)[C@H](CO)NC(=O)[C@H](CCC(=O)O)NC(=O)[C@H](Cc1ccccc1)NC(=O)[C@H](CC(C)C)NC(=O)[C@@H](NC(=O)[C@H](Cc1ccc(OS(=O)(=O)O)cc1)NC(=O)[C@H](CC(=O)O)NC(=O)[C@@H](NC(=O)[C@@H](NC(=O)[C@@H](NC(=O)[C@H](CC(N)=O)NC(=O)[C@@H](N)CC(=O)O)[C@@H](C)O)[C@@H](C)O)C(C)C)[C@@H](C)O)C(=O)N[C@@H](C)C(=O)N[C@@H](CO)C(=O)N[C@@H](CCCCN)C(=O)N[C@@H](CCCCN)C(=O)N[C@@H](CC(=O)O)C(=O)N[C@H](C(=O)N[C@@H](CCCNC(=N)N)C(N)=O)C(C)C [CCR7 11–30 sY17] (H-DNTTVD[sY]TLFESLASKKDVR-NH2) | 480 ± 70 | 
DNTTVDYTLFESLASKKDVR-NH2 [CCR7 11–30] | 6800 | 
TDDYIGD-NH2 [CCR7 5–11] | 700 ± 300 | Kd, CCL21 K69 only (representative residue) (CCL21): 530 ± 40 µM
B1 |  | Kd (CCR7 5–11 sY8): 140 µM; Kd (CCR7 5–11): 700 µM; Kd (CCR7 5–11 pY8): 240 µM
